One substance from patent US10799597B2, “Subcutaneous administration of antibody-drug conjugates for cancer therapy” (Immunomedics, Inc., priority 2017, dated 2020) can be followed below.

Data set [1] has as its system gastric adenocarcinoma metastases. The data set can be described thus: I.V. and S.C. IMMU-130 in a gastric cancer patient (Example 15). Format: in vivo, human. From the text: Their fourth infusion is postponed by one week, and then the weekly infusions are reinstituted, with no evidence of diarrhea or neutropenia for the next 4 injection. The patient then undergoes a CT study to measure their metastatic tumor sizes and to view the original area of gastric resection. The radiologist measures, according to RECIST criteria, a decrease of the sum of the metastatic lesions, compared to baseline prior to IMMU-130 therapy, of 23%. […] The patient's general condition improves and they resume their usual activities while continuing to receive a maintenance therapy of 3 mg/kg administered twice-weekly subcutaneously of IMMU-130 every six weeks for another 4 courses of therapy. At the last measurement of blood CEA, the value is 4.8 ng/mL, which is within the normal range for a smoker, which is the case for this patient.

A short description of data set [2]: Drug release from the linker in IMMU-130.
Data set [3] can be described thus: Tolerability study of IMMU-130 in rabbits. The class given is in vivo, white New Zealand rabbits. The settings on record: given as two doses. On the procedure: (§1) Experiments were conducted in female athymic nude mice, 4 weeks or older, bearing s.c. LS174T human colon carcinoma xenografts of (˜0.2 cm^3 size), or 2 weeks after lung metastases were generated by i.v. injection of GW-39 human colon carcinoma cells. Untreated controls, including a non-targeting ADC, were included. […] Tolerability studies were conducted in white New Zealand rabbits.

Data set [4] relates to metastatic colon cancer. The data set can be described thus: S.C. hMN-14-SN-38 ADC in advanced metastatic colon cancer (Example 16). Format: in vivo, human. Conditions: 2 mg/kg S.C. twice-weekly every other week, 3-month CT evaluation. On the procedure: The hMN-14-SN-38 ADC is administered at a dosage of 2 mg/kg S.C., twice-weekly, which is repeated every other week for 4 months.

Data set [5] concerns metastatic colon cancer. The data set can be described thus: Subcutaneous IMMU-130 in a patient with metastatic colon cancer (Example 11). Conditions: s.c. 4 mg/kg 3 times weekly for 2 weeks, 3 cycles; CT 8 weeks from treatment begin. The class given is in vivo, human. On the procedure:
A person with metastatic colon cancer (3-5 cm diameters) to their left and right liver lobes, as well as a 5 cm metastasis to their right lung, and an elevated blood CEA value of 130 ng/mL, is treated with the anti-CEACAM-5 ADC IMMU-130 (hMN-14-CL2A-SN-38) administered subcutaneously at a dosage of 4 mg/kg, given 3 times weekly for 2 weeks, followed by rest, with 3 cycles of drug administration. […] Repeated courses of therapy continue as their neutropenia normalizes.

Data set [6] has as its system GW-39 human colon carcinoma lung metastases. The data set can be described thus: IMMU-130 therapy of GW-39 lung metastases in nude mice. The class given is in vivo, athymic nude mice. On the procedure:
as §1

Data set [7] has as its system metastatic colonic cancer. The data set can be described thus: IMMU-130 in a patient with advanced colon cancer (Example 13). Format: in vivo, human. An excerpt: The patient is a person with a history of stage-IV metastatic colonic cancer, first diagnosed in 2008 and given a colectomy and partial hepatectomy for the primary and metastatic colonic cancers, respectively. […] In 2009, they received radiofrequency ablation therapy to their liver metastasis while under chemo-immunotherapy, and in late 2010 they underwent a wedge resection of their lung metastases, which was repeated a few months later, in early 2011. Despite having chemo-immunotherapy in 2011, new lung metastases appeared at the end of 2011, and in 2012, both lung and liver metastases were visualized. Their baseline plasma carcinoembryonic antigen (CEA) titer was 12.5 ng/mL just before undergoing the antibody-drug therapy with IMMU-130. The index lesions chosen by the radiologist for measuring tumor size change by computed tomography were the mid-lobe of the right lung and the liver metastases, both totaling 91 mm as the sum of their longest diameters at the baseline prior to IMMU-130 (anti-CEACAM5-SN-38) therapy.
This patient received doses of 10 mg/kg of IMMU-130 by slow IV infusion every other week for a total of 17 treatment doses. The patient tolerated the therapy well, having only a grade 1 nausea, diarrhea and fatigue after the first treatment, which occurred after treatments 4 and 5, but not therafter, because they received medication for these side-effects. After treatment 3, they did show alopecia (grade 2), which was present during the subsequent therapy. The nausea, diarrhea, and occasional vomiting lasted only 2-3 days, and their fatigue after the first infusion lasted 2 weeks. Otherwise, the patient tolerated the therapy well.

Data set [8] concerns LS174T human colon carcinoma xenografts. The data set can be described thus: IMMU-130 therapy of s.c. LS174T xenografts in nude mice. Format: in vivo, athymic nude mice. The settings on record: s.c. model. On the procedure: as §1

Take “IMMU-130: CEACAM5-targeted ADC, labetuzumab-SN-38, substituted at 7-8 moles/mole of IgG”: the “decrease of the sum of the metastatic lesions (RECIST)” value in data set [1] (8 mg/kg I.V. weekly, first CT study) was determined as 23%. In data set [1] (after 3 weeks of 8 mg/kg I.V.), the grade of diarrhea is listed as 1 and the grade of neutropenia is listed as 2. The “decrease of the sum of all metastatic lesions” value in data set [1] (after a total of 13 infusions of 8.0 mg/kg I.V.) is 41%. Besides, the CEA titer in data set [1] (at first CT study, baseline 14.5 ng/mL) is recorded as 7.2 ng/mL. In addition, the “blood CEA” value in data set [1] (last measurement, s.c. maintenance 3 mg/kg twice-weekly) is 4.8 ng/mL. In data set [2], the “time for liberating 50% of drug” value was around 20 h. Further, in data set [3], the “NOAEL, human equivalent dose” value lay in the range of 40 to 60 mg/kg. Besides, the “response by RECIST criteria” value in the data set with metastatic colon cancer [4] is listed as “partial response”. Moreover, in the data set on metastatic colon cancer [5], the “reduction of the total mean diameters of the 3 target lesions” value is 25%. Moreover, the “effect of pre-dosing with labetuzumab on median survival” value in data set [6] (pre-dose up to twice the ADC dose, n=10) is recorded as “did not affect median survival”. Moreover, in data set [6] (total 50 mg/kg ADC, 2 cycles of 21 days, twice-weekly×2 weeks and once weekly×2 weeks schedules), the “median survival vs. untreated mice” value is recorded as “doubled median survival”. The “grade of nausea, diarrhea and fatigue” value in data set [7] (10 mg/kg IV) is recorded as 1. Moreover, the “change in index lesions from baseline (CT)” value in data set [7] (10 mg/kg IV every other week, after 4 treatments) amounted to 28.6%. Also, the “reduction in index lesions from baseline (CT)” value in data set [7] (after 8 treatments) is 40.6%. In data set [7] (after 16 doses), the “anti-labetuzumab antibody in blood” value is “none was detected”. Moreover, in data set [7] (after the third therapy dose, baseline 12.6 ng/mL), the “plasma CEA titer” value was 2.1 ng/mL. The same substance showed a grade of alopecia in data set [7] (after treatment 3) of 2. The “index lesions less than baseline (CT)” value in data set [7] (another 2 months later) is listed as 31.9%. The “efficacy vs. the conjugate with an ultrastable linker” value in data set [8] (n=5) is reported as “superior”. Also, the “efficacy of combination with bevacizumab” value in data set [8] (n=8-10, P<0.031) is listed as “improved efficacy”. Further, in data set [8] (n=10, P<0.0001), the “efficacy vs. an MTD of 5 FU/leucovorin chemotherapy” value is given as “better”.
